Experimental data taken from patent US20220218878A1, “CONTROLLED HEAT DELIVERY COMPOSITIONS” (BAMBU VAULT LLC, priority 2019, published 2022).

Columns and labels:
[1] = Surfactant effect on tetrakis aminium dye retention and particle size during emulsification; assay type: physicochemical; settings: emulsion and evaporation process; emulsifier as labelled
Experimental: The preparation of the aqueous phase: under the stirring with an IKA Ultra-Turrax® T 25 homogenizer at 8000 RPM, 1.2 g of sodium dodecyl sulfate (SDS) was added into 190 g of 4.9% aqueous polyvinyl alcohol (PVA) solution placed in a round bottom flask. An aqueous solution of SDS containing 4.9% PVA was formed after the dissolution of SDS (the aqueous phase).
The preparation of the organic phase: to 88 g of dichloromethane was added 8.0 g of DSM NeoCryl® B-805 polymer (MMA/BMA copolymer), 1.82 g of Epolight™ 1117 dye, and 0.65 g of Cyanox® 1790 in 88 g to allow the formation of a clear solution of B805 polymer and dyes (the polymer: dye weight ratio=4.4:1).
The organic phase (polymer and dyes dissolved in dichloromethane) was injected directly into the aqueous phase (PVA solution with SDS surfactant) at the tip of the Turrax's roto-stator (i.e. directly into the flow being sheared by the roto-stator). The shear mixing at 8000 RPM was continued for 30 minutes. The resulting mixture was decanted into an open-mouth container and stirred magnetically for 16 hours. A solid suspension of particles containing IR dye was obtained. […]
Particle Size and Distribution for the particle heaters The particle size and size distribution of the NIR dye/MMA/BMA copolymer particles were measured by a Horiba LA-950 Particle Size Analyzer in distilled water with pH 7.4 (FIG. 3). […]

[2] = Screening of acrylic polymer carriers and additives for particle performance; assay type: physicochemical; settings: additive within the particles
Source text: Various commercially available acrylic polymers were screened for preferred particle performance characteristic such as particle size distribution, IR dye stability and encapsulation efficiency.
The loading of dyes within the particles is as high as possible without degrading the cohesion of the polymer. The additives that stabilize the dye within the particles have been studied.

| SMILES | Epolight™ 1117 retention in the particles [1] | impact on dye stability [2] |
| --- | --- | --- |
| CCCCCCCCCCCCCOC(=O)CC(C(=O)OCCCCCCCCCCCCC)S(=O)(=O)O.[Na] (stereo not drawn) [Aerosol® TR-70, sodium bis(tridecyl) sulfosuccinate] | 50% |  |
| Cc1cc(C(C)(C)C)c(O)c(C)c1Cn1c(=O)n(Cc2c(C)cc(C(C)(C)C)c(O)c2C)c(=O)n(Cc2c(C)cc(C(C)(C)C)c(O)c2C)c1=O [Cyanox® 1790, 1,3,5-tris(4-tert-butyl-3-hydroxy-2,6-dimethylbenzyl)-1,3,5-triazine-2,4,6-(1H,3H,5H)-trione] |  | positive impact on dye stability |
| CCCCCCCCCCCCOS(=O)(=O)[O-].[Na+] [Sodium dodecyl sulfate, sodium dodecyl sulfate] | 85-90% |  |
